The results in this text go back to ChEMBL document CHEMBL3865849, “Development of N-(4-Phenoxyphenyl)benzenesulfonamide Derivatives as Novel Nonsteroidal Progesterone Receptor Antagonists” (ACS Med Chem Lett, 2016).

The target of the assay is Androgen receptor (Mus musculus) (UniProt P19091). The assay is described as follows: Antagonist activity at androgen receptor in mouse SC-3 cells assessed as inhibition of DHT-induced cell growth at 1 uM co-treated with DHT measured after 3 days by CCK8 assay. In general terms: Formazan colour is commonly taken as a measure of viable cells.
Androgen receptor (Mus musculus), sequence (P19091 whole entry, looked up): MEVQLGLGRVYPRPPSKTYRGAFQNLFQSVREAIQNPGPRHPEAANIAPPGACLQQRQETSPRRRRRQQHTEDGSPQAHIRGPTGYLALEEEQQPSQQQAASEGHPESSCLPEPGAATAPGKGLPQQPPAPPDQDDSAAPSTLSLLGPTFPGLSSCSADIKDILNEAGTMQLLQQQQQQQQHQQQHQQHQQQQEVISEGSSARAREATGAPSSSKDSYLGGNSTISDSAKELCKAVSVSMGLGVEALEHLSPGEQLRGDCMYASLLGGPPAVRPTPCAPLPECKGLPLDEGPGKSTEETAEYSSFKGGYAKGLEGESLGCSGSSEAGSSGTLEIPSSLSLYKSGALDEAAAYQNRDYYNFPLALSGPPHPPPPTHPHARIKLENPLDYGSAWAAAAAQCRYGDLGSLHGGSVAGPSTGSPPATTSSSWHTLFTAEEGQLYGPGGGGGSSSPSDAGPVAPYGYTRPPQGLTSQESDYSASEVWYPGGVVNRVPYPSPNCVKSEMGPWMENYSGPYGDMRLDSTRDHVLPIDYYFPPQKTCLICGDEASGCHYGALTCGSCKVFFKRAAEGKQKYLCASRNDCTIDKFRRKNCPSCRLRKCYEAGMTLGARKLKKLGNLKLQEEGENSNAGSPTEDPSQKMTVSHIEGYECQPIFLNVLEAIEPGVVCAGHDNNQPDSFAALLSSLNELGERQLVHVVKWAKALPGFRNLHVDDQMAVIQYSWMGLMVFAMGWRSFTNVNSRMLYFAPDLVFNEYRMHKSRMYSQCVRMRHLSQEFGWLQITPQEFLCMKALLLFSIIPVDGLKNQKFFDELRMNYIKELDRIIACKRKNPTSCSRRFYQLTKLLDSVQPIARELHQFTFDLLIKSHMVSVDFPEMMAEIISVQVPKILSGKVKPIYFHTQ

Molecules are shown by their SMILES.

Take `O=S(=O)(Nc1ccc(Oc2ccccc2)cc1)c1cccc(Cl)c1`: the inhibition was 8.4%.

A word on the inhibition: it is the share of the control response that was lost under treatment.
